This note sets out measurements from PubChem BioAssay (NCI).

Several values for one entry are separate records, joined by “and”; a condition that tells them apart may be missing. Equal values may be shown once.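 Five concentrations, 48 hours, 96-well plates. GI50 = concentration required for 50% inhibition of growth. TGI marks complete inhibition of growth.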

One experiment has as its system CCRF-CEM leukemia. The experiment is described as follows: NCI tumour cell line growth inhibition, 48 h.
`C=CCCCC12CCCc3cccc(c31)NC2=O` (stereo not given) registered a TGI of more than 100 µM.
For the compound `C[C@@H]1C[C@H](O)[C@]2(O)O[C@@H]3C[C@@]4(C=O)[C@@H](CC=C5[C@@H]4CC[C@]4(C)[C@@H](C6=CC(=O)OC6)CC[C@]54O)C[C@H]3O[C@@H]2O1`, the TGI came out at 0.0161 µM.
`Cc1nc2cc(C(F)(F)F)ccc2[nH]c1=O` displayed a TGI of more than 100 µM.
Still for that read-out and setting: the result for `O=C1C(Cl)N(c2ccccc2)C1c1c[nH]c2ccccc12` (stereo not given) reads more than 100 µM; that for `CC(C)/C(Cl)=N\OC(=O)NNc1ccccc1`, more than 46.7 µM; that for `Cc1nc2nnc(C)n2c2c1C(=O)Nc1ccccc1N2`, more than 100 µM.
As for `O=C(OCc1ccccc1)OOC(=O)OCc1ccccc1`, the TGI is more than 100 µM.
Take `CN(C)c1ccc(/C(Br)=C2\OC(=O)c3ccccc32)cc1`: the TGI was more than 100 µM.
In turn, `O=C1OC[C@@H]2Cc3c([nH]c4ccccc34)[C@@H](c3ccc(O)cc3)N12` had a TGI of more than 84.4 µM.
`Nc1ncnc2c1ncn2C(=O)NC12CC3CC(CC(C3)C1)C2`: the TGI was more than 100 µM.
`CC1=C2c3ccccc3N(C(=O)/C=C/C(=O)O)[C@H]2[C@H]2C(=O)OC(=O)[C@H]2C1` had a TGI of more than 10 µM.
Consider `CC(C)(CO)N1C(=O)c2ccccc2C1(O)c1ccc(Cl)cc1` (stereo not given), for which the TGI is more than 100 µM.
Compound `CN1CN(c2ccccc2)C2(CCN(CCCC3(c4cccs4)OCCO3)CC2)C1=O` had a TGI of more than 100 µM.
As to `COc1cc([C@@H]2c3cc4c(cc3C[C@H]3COC(=O)[C@@H]32)OCO4)cc(OC)c1OC`, the GI50 is 3.86 nM and the TGI came out at 21.1 µM.
`Cc1nc2ccc([N+](=O)[O-])cc2c(=O)n1C(=S)Nc1cccc(Cl)c1` yielded a TGI of 62.3 µM.
In turn, `COc1cccc(-c2nc(-c3cnccn3)n(Cc3ccccc3)n2)c1` gave a TGI of more than 100 µM.
Consider `CC(=O)Nc1ccc(Cl)c(Cl)c1`, for which the TGI is more than 100 µM.
In turn, `O=C(/C=C/c1cccs1)c1ccc(Cl)cc1` showed a TGI of 68 µM.
`N#Cc1c(OCCF)c2ccccc2n2c1nc1ccccc12` yielded a TGI of more than 100 µM.
`Cc1ccc(C(=O)Nc2ccc(CP(=O)(O)O)cc2)cc1NC(=O)c1cccc(NC(=O)Nc2cccc(C(=O)Nc3cc(C(=O)Nc4ccc(CP(=O)(O)O)cc4)ccc3C)c2)c1` had a TGI of more than 100 µM.
Regarding `CC(C)=CC1C(C(=O)O)C1(C)C` (stereo not given), the TGI was more than 750 µM.
On to `CCOC(=O)C1CC(O)C(=O)N1C` (stereo not given), for which the TGI was more than 100 µM.
`COc1cccc(C2c3cc4c(cc3OC(N3CCCC3)C2C)OCO4)c1OC` (stereo not given) yielded a TGI of 16.9 µM.
`c1ccc(N=c2snc(-c3ccccc3)s2)cc1` showed a TGI of more than 100 µM.
In turn, `CC(=O)CC(=O)c1cc2c(=O)oc(C)cc2oc1=O` yielded a TGI of more than 37.5 µM.
On the same count and under the same terms, with `OCc1ccccc1C1CSCSC1` the figure was more than 100 µM.

A further experiment concerns COLO 205 colon. The experiment is described as follows: NCI tumour cell line growth inhibition, 48 h.
For the compound `C=CCCCC12CCCc3cccc(c31)NC2=O` (stereo not given), the TGI came out at 40.4 µM.
Same read-out and setting: with `C[C@@H]1C[C@H](O)[C@]2(O)O[C@@H]3C[C@@]4(C=O)[C@@H](CC=C5[C@@H]4CC[C@]4(C)[C@@H](C6=CC(=O)OC6)CC[C@]54O)C[C@H]3O[C@@H]2O1` the figure was 1.94 µM.
Compound `Cc1nc2cc(C(F)(F)F)ccc2[nH]c1=O` gave a TGI of more than 100 µM.
As to `N#CSCc1cccc(Nc2cc(=O)[nH]c(=O)[nH]2)c1`, the TGI is more than 100 µM.
As to `O=C1C(Cl)N(c2ccccc2)C1c1c[nH]c2ccccc12` (stereo not given), the TGI was more than 100 µM.
For `CC(C)/C(Cl)=N\OC(=O)NNc1ccccc1`, the TGI turned out to be 1.63 µM.
In the case of `Cc1nc2nnc(C)n2c2c1C(=O)Nc1ccccc1N2`, the TGI was more than 100 µM.
In the case of `O=C(OCc1ccccc1)OOC(=O)OCc1ccccc1`, the TGI is more than 100 µM.
Consider `CN(C)c1ccc(/C(Br)=C2\OC(=O)c3ccccc32)cc1`, for which the TGI was more than 100 µM.
Same read-out and setting: with `O=C1OC[C@@H]2Cc3c([nH]c4ccccc34)[C@@H](c3ccc(O)cc3)N12` the figure was 40.9 µM.
Take `Nc1ncnc2c1ncn2C(=O)NC12CC3CC(CC(C3)C1)C2`: the TGI was more than 100 µM.
In the case of `CC1=C2c3ccccc3N(C(=O)/C=C/C(=O)O)[C@H]2[C@H]2C(=O)OC(=O)[C@H]2C1`, the TGI was more than 10 µM.
Consider `CC(C)(CO)N1C(=O)c2ccccc2C1(O)c1ccc(Cl)cc1` (stereo not given), for which the TGI was more than 100 µM.
Still for that read-out and setting: the result for `Cc1cc2cccc(Cl)c2nc1C(=O)c1ccccc1` reads more than 100 µM; that for `CN1CN(c2ccccc2)C2(CCN(CCCC3(c4cccs4)OCCO3)CC2)C1=O`, more than 100 µM.
Take `COc1cc([C@@H]2c3cc4c(cc3C[C@H]3COC(=O)[C@@H]32)OCO4)cc(OC)c1OC`: the GI50 is 6.27 nM and 9.2 nM; the TGI was 0.028 µM.
Turning to `Cc1nc2ccc([N+](=O)[O-])cc2c(=O)n1C(=S)Nc1cccc(Cl)c1`, the TGI amounted to 31.6 µM.
The compound `COc1cccc(-c2nc(-c3cnccn3)n(Cc3ccccc3)n2)c1` gave a TGI of more than 100 µM.
Same read-out and setting: with `CC(=O)Nc1ccc(Cl)c(Cl)c1` the figure was more than 100 µM; with `O=C(/C=C/c1cccs1)c1ccc(Cl)cc1`, more than 100 µM.
In the case of `N#Cc1c(OCCF)c2ccccc2n2c1nc1ccccc12`, the TGI was more than 100 µM.
On to `CC(=O)/C(=C/n1c(=S)sc2ccccc21)C(=O)Nc1ccccc1C`, for which the TGI is more than 100 µM.
Consider `Cc1ccc(C(=O)Nc2ccc(CP(=O)(O)O)cc2)cc1NC(=O)c1cccc(NC(=O)Nc2cccc(C(=O)Nc3cc(C(=O)Nc4ccc(CP(=O)(O)O)cc4)ccc3C)c2)c1`, for which the TGI was more than 100 µM.
Regarding `O=C(CCc1ccc(O)cc1)c1c(O)cc(O)cc1OC1OC(CO)C(O)C(O)C1O` (stereo not given), the TGI is more than 100 µM.
The compound `CC(C)=CC1C(C(=O)O)C1(C)C` (stereo not given) displayed a TGI of more than 750 µM.
`CCOC(=O)C1CC(O)C(=O)N1C` (stereo not given): the TGI was more than 100 µM.
The compound `COc1cccc(C2c3cc4c(cc3OC(N3CCCC3)C2C)OCO4)c1OC` (stereo not given) had a TGI of 19.4 µM.
On to `c1ccc(N=c2snc(-c3ccccc3)s2)cc1`, for which the TGI is more than 100 µM.
Consider `CC(=O)CC(=O)c1cc2c(=O)oc(C)cc2oc1=O`, for which the TGI is more than 37.5 µM.

The subject of a further experiment is SR leukemia. Kind of experiment: NCI tumour cell line growth inhibition, 48 h.
The compound `C=CCCCC12CCCc3cccc(c31)NC2=O` (stereo not given) displayed a TGI of more than 100 µM.
Consider `O=C1C(Cl)N(c2ccccc2)C1c1c[nH]c2ccccc12` (stereo not given), for which the TGI was more than 100 µM.
On the same count and under the same terms, the result for `Cc1nc2nnc(C)n2c2c1C(=O)Nc1ccccc1N2` reads more than 100 µM; that for `O=C(OCc1ccccc1)OOC(=O)OCc1ccccc1`, more than 100 µM; that for `CN(C)c1ccc(/C(Br)=C2\OC(=O)c3ccccc32)cc1`, more than 100 µM.
In turn, `O=C1OC[C@@H]2Cc3c([nH]c4ccccc34)[C@@H](c3ccc(O)cc3)N12` returned a TGI of more than 87.4 µM.
`CC1=C2c3ccccc3N(C(=O)/C=C/C(=O)O)[C@H]2[C@H]2C(=O)OC(=O)[C@H]2C1` gave a TGI of more than 10 µM.
`Cc1cc2cccc(Cl)c2nc1C(=O)c1ccccc1` gave a TGI of more than 100 µM.
